Test results: patent publication US20180360769A1, “SYSTEMS AND METHODS FOR TRANSDERMAL DRUG DELIVERY” (Elliptical Therapeutics, LLC, priority 2015, published 2018)

Legend:
[1] = tested on: moderate to severe post-operative pain; conditions: cited from earlier work
[2] = in vivo; cited from earlier work
[3] = tested on: rabbit skin; conditions: in vivo
[4] = human subjects, cited from earlier work
[5] = animal models; cited from earlier work

**Q.** With `O=C(c1ccccc1)c1ccc2n1CCC2C(=O)O` (racemic) [Toradol®, Ketorolac tromethamine] as the compound, how does the adverse effects ([1]; administered orally for extended periods of time) read?
**A.** gastric irritation and ulcers have been observed

**Q.** And the “efficacy compared with morphine, meperidine, or pentazocine” value ([1]; single-dose, moderate to severe post-operative pain)?
**A.** more efficacious

**Q.** For `O=C(c1ccccc1)c1ccc2n1CCC2C(=O)O` (racemic) [racemic ketorolac, ketorolac], which biological half-life [2] is on record?
**A.** 4-6 hours

**Q.** Which “skin irritation (erythema and edema), in words” value [3] does the source give for `O=C(c1ccccc1)c1ccc2n1CC[C@@H]2C(=O)O` [(s)-ketorolac] here?
**A.** non-irritant

**Q.** And the “plasma concentrations compared with (r)-ketorolac” value ([4]; after oral administration of racemic ketorolac, all sample times)?
**A.** lower

**Q.** And the “clearance compared with (r)-ketorolac” value ([4]; single oral solution dose)?
**A.** greater

**Q.** And the “plasma half-life compared with (r)-ketorolac” value ([4]; single oral solution dose)?
**A.** shorter

**Q.** And the “potency compared with the (r)-enantiomer” value [5]?
**A.** approximately twice as potent

**Q.** Which results are given for `CCCCCCCCCCCCOS(=O)(=O)[O-].[Na+]` [SDS, 5%, sodium dodecyl sulfate]?
**A.** Overall Edema Score ([3]; New Zealand): 2.0; Overall Erythema Score ([3]; New Zealand): 1.0
